# Species: Rattus norvegicus
# Test: DrugMatrix - Regimen: Daily Repeat
# Format: toxicity, organism-based, Sprague-Dawley
# Set-up: regimen Daily Repeat, gender Male, age 6-8 weeks
# Conditions: in vivo, po, route oral GAVAGE, […]; for ABSOLUTE BASOPHIL / ABSOLUTE EOSINOPHIL / ABSOLUTE LYMPHOCYTE / ABSOLUTE MONOCYTE / ABSOLUTE SEGMENTED NEUTROPHIL / BASOPHIL / EOSINOPHIL / ERYTHROCYTE COUNT / HEMATOCRIT / HEMOGLOBIN / LEUKOCYTE COUNT / LYMPHOCYTE / MEAN CORPUSCULAR HEMOGLOBIN / MEAN CORPUSCULAR HEMOGLOBIN CONCENTRATION / MEAN CORPUSCULAR VOLUME / MONOCYTE / NEUTROPHIL / NUCLEATED RED BLOOD CELLS / PLATELET COUNT: tissue Blood; for ALANINE AMINOTRANSFERASE / ALBUMIN / ALKALINE PHOSPHATASE / ASPARTATE AMINOTRANSFERASE / BLOOD UREA NITROGEN / CARBON DIOXIDE / CHLORIDE / CHOLESTEROL / CREATINE PHOSPHOKINASE / CREATININE / GLUCOSE / LACTATE DEHYDROGENASE / LIPASE / PHOSPHORUS / POTASSIUM / SODIUM / TOTAL BILIRUBIN / TOTAL PROTEIN / URIC ACID: tissue Plasma
# [1] = 10 mg/kg, 72 h, dose level Low, time 3 day
# [2] = 10 mg/kg, 120 h, dose level Low, time 5 day
# [3] = 25 mg/kg, 72 h, dose level High, time 3 day
# [4] = 25 mg/kg, 120 h, dose level High, time 5 day
compound,measurement,setting,value
Sc1ncnc2nc[nH]c12 [MERCAPTOPURINE ANHYDROUS],ABSOLUTE BASOPHIL,[1],0 CELLS/uL
same,ABSOLUTE EOSINOPHIL,[1],96.67 CELLS/uL
same,ABSOLUTE LYMPHOCYTE,[1],10655 CELLS/uL
same,ABSOLUTE MONOCYTE,[1],48.33 CELLS/uL
same,ABSOLUTE SEGMENTED NEUTROPHIL,[1],1066.67 CELLS/uL
same,BASOPHIL,[1],0%
same,EOSINOPHIL,[1],0.67%
same,ERYTHROCYTE COUNT,[1],5.09 x10E6/uL
same,HEMATOCRIT,[1],31.73%
same,HEMOGLOBIN,[1],12.87 G/DL
same,LEUKOCYTE COUNT,[1],11.87 x10E3/uL
same,LYMPHOCYTE,[1],90.33%
same,MEAN CORPUSCULAR HEMOGLOBIN,[1],25.3 pg
same,MEAN CORPUSCULAR HEMOGLOBIN CONCENTRATION,[1],40.6 G/DL
same,MEAN CORPUSCULAR VOLUME,[1],62.4 fL
same,MONOCYTE,[1],0.33%
same,NEUTROPHIL,[1],8.67%
same,NUCLEATED RED BLOOD CELLS,[1],0 /100WBC
same,PLATELET COUNT,[1],1148.67 x10E3/uL
same,ALANINE AMINOTRANSFERASE,[1],66.33 u/L
same,ALBUMIN,[1],3.9 G/DL
same,ALKALINE PHOSPHATASE,[1],364.67 u/L
same,ASPARTATE AMINOTRANSFERASE,[1],83 u/L
same,BLOOD UREA NITROGEN,[1],13 mg/dL
same,CARBON DIOXIDE,[1],30.33 mmol/L
same,CHLORIDE,[1],99 MEQ/L
same,CHOLESTEROL,[1],73.67 mg/dL
same,CREATINE PHOSPHOKINASE,[1],175.33 u/L
same,CREATININE,[1],0.15 mg/dL
same,GLUCOSE,[1],164.33 mg/dL
same,LACTATE DEHYDROGENASE,[1],112.33 u/L
same,LIPASE,[1],11.33 u/L
same,PHOSPHORUS,[1],11.03 mg/dL
same,POTASSIUM,[1],6.32 MEQ/L
same,SODIUM,[1],142.6 MEQ/L
same,TOTAL BILIRUBIN,[1],0.2 mg/dL
same,TOTAL PROTEIN,[1],5.6 G/DL
same,URIC ACID,[1],1.4 mg/dL
same,ABSOLUTE BASOPHIL,[2],0 CELLS/uL
same,ABSOLUTE EOSINOPHIL,[2],128 CELLS/uL
same,ABSOLUTE LYMPHOCYTE,[2],12203 CELLS/uL
same,ABSOLUTE MONOCYTE,[2],203 CELLS/uL
same,ABSOLUTE SEGMENTED NEUTROPHIL,[2],1366 CELLS/uL
same,BASOPHIL,[2],0%
same,EOSINOPHIL,[2],0.67%
same,ERYTHROCYTE COUNT,[2],5.76 x10E6/uL
same,HEMATOCRIT,[2],36.7%
same,HEMOGLOBIN,[2],14.3 G/DL
same,LEUKOCYTE COUNT,[2],13.9 x10E3/uL
same,LYMPHOCYTE,[2],88.67%
same,MEAN CORPUSCULAR HEMOGLOBIN,[2],24.83 pg
same,MEAN CORPUSCULAR HEMOGLOBIN CONCENTRATION,[2],38.97 G/DL
same,MEAN CORPUSCULAR VOLUME,[2],63.73 fL
same,MONOCYTE,[2],1.33%
same,NEUTROPHIL,[2],9.33%
same,NUCLEATED RED BLOOD CELLS,[2],0 /100WBC
same,PLATELET COUNT,[2],1127 x10E3/uL
same,ALANINE AMINOTRANSFERASE,[2],61 u/L
same,ALBUMIN,[2],4.33 G/DL
same,ALKALINE PHOSPHATASE,[2],384.33 u/L
same,ASPARTATE AMINOTRANSFERASE,[2],75 u/L
same,BLOOD UREA NITROGEN,[2],15 mg/dL
same,CARBON DIOXIDE,[2],29.33 mmol/L
same,CHLORIDE,[2],100.33 MEQ/L
same,CHOLESTEROL,[2],73.67 mg/dL
same,CREATINE PHOSPHOKINASE,[2],274.33 u/L
same,CREATININE,[2],0.22 mg/dL
same,GLUCOSE,[2],153.67 mg/dL
same,LACTATE DEHYDROGENASE,[2],111 u/L
same,LIPASE,[2],12.67 u/L
same,PHOSPHORUS,[2],10.1 mg/dL
same,POTASSIUM,[2],6.41 MEQ/L
same,SODIUM,[2],142.27 MEQ/L
same,TOTAL BILIRUBIN,[2],0.17 mg/dL
same,TOTAL PROTEIN,[2],5.97 G/DL
same,URIC ACID,[2],1.13 mg/dL
same,ABSOLUTE BASOPHIL,[3],0 CELLS/uL
same,ABSOLUTE EOSINOPHIL,[3],0 CELLS/uL
same,ABSOLUTE LYMPHOCYTE,[3],6679.67 CELLS/uL
same,ABSOLUTE MONOCYTE,[3],205.33 CELLS/uL
same,ABSOLUTE SEGMENTED NEUTROPHIL,[3],481.67 CELLS/uL
same,BASOPHIL,[3],0%
same,EOSINOPHIL,[3],0%
same,ERYTHROCYTE COUNT,[3],6.41 x10E6/uL
same,HEMATOCRIT,[3],40.73%
same,HEMOGLOBIN,[3],15.47 G/DL
same,LEUKOCYTE COUNT,[3],7.37 x10E3/uL
same,LYMPHOCYTE,[3],91%
same,MEAN CORPUSCULAR HEMOGLOBIN,[3],24.1 pg
same,MEAN CORPUSCULAR HEMOGLOBIN CONCENTRATION,[3],38 G/DL
same,MEAN CORPUSCULAR VOLUME,[3],63.4 fL
same,MONOCYTE,[3],2.67%
same,NEUTROPHIL,[3],6.33%
same,NUCLEATED RED BLOOD CELLS,[3],0.33 /100WBC
same,PLATELET COUNT,[3],972 x10E3/uL
same,ALANINE AMINOTRANSFERASE,[3],61.67 u/L
same,ALBUMIN,[3],4.17 G/DL
same,ALKALINE PHOSPHATASE,[3],420.33 u/L
same,ASPARTATE AMINOTRANSFERASE,[3],105.67 u/L
same,BLOOD UREA NITROGEN,[3],12 mg/dL
same,CARBON DIOXIDE,[3],28 mmol/L
same,CHLORIDE,[3],99.33 MEQ/L
same,CHOLESTEROL,[3],77.33 mg/dL
same,CREATINE PHOSPHOKINASE,[3],602.33 u/L
same,CREATININE,[3],0.16 mg/dL
same,GLUCOSE,[3],163 mg/dL
same,LACTATE DEHYDROGENASE,[3],320 u/L
same,LIPASE,[3],13 u/L
same,PHOSPHORUS,[3],11.97 mg/dL
same,POTASSIUM,[3],6.85 MEQ/L
same,SODIUM,[3],141.03 MEQ/L
same,TOTAL BILIRUBIN,[3],0.2 mg/dL
same,TOTAL PROTEIN,[3],5.8 G/DL
same,URIC ACID,[3],1.57 mg/dL
same,ABSOLUTE BASOPHIL,[4],0 CELLS/uL
same,ABSOLUTE EOSINOPHIL,[4],80.67 CELLS/uL
same,ABSOLUTE LYMPHOCYTE,[4],12020.67 CELLS/uL
same,ABSOLUTE MONOCYTE,[4],204.67 CELLS/uL
same,ABSOLUTE SEGMENTED NEUTROPHIL,[4],927.33 CELLS/uL
same,BASOPHIL,[4],0%
same,EOSINOPHIL,[4],0.67%
same,ERYTHROCYTE COUNT,[4],5.62 x10E6/uL
same,HEMATOCRIT,[4],34.93%
same,HEMOGLOBIN,[4],13.6 G/DL
same,LEUKOCYTE COUNT,[4],13.23 x10E3/uL
same,LYMPHOCYTE,[4],91%
same,MEAN CORPUSCULAR HEMOGLOBIN,[4],24.33 pg
same,MEAN CORPUSCULAR HEMOGLOBIN CONCENTRATION,[4],39 G/DL
same,MEAN CORPUSCULAR VOLUME,[4],62.3 fL
same,MONOCYTE,[4],1.33%
same,NEUTROPHIL,[4],7%
same,NUCLEATED RED BLOOD CELLS,[4],0 /100WBC
same,PLATELET COUNT,[4],1431.67 x10E3/uL
same,ALANINE AMINOTRANSFERASE,[4],58 u/L
same,ALBUMIN,[4],4.4 G/DL
same,ALKALINE PHOSPHATASE,[4],341 u/L
same,ASPARTATE AMINOTRANSFERASE,[4],91.33 u/L
same,BLOOD UREA NITROGEN,[4],10.67 mg/dL
same,CARBON DIOXIDE,[4],25 mmol/L
same,CHLORIDE,[4],100.33 MEQ/L
same,CHOLESTEROL,[4],73 mg/dL
same,CREATINE PHOSPHOKINASE,[4],601.67 u/L
same,CREATININE,[4],0.13 mg/dL
same,GLUCOSE,[4],164 mg/dL
same,LACTATE DEHYDROGENASE,[4],169.67 u/L
same,LIPASE,[4],12.33 u/L
same,PHOSPHORUS,[4],11.07 mg/dL
same,POTASSIUM,[4],7.18 MEQ/L
same,SODIUM,[4],142.8 MEQ/L
same,TOTAL BILIRUBIN,[4],0.17 mg/dL
same,TOTAL PROTEIN,[4],6.07 G/DL
same,URIC ACID,[4],1.5 mg/dL

# From ChEMBL document CHEMBL3885881, “DrugMatrix”
